Data as given in paper PMC6992361 (Molecular cancer therapeutics, 2019).

Columns and labels:
[1] = tested on: monolayer of endothelial cells; assay: Transendothelial electrical impedance assay; assay type: cell-based; details: S1P at 10 nM
[2] = tested on: 786-O RCC tumor xenograft; assay: Multiplexed immunohistochemistry analysis of tumors; assay type: in vivo, mouse; details: 786-O xenograft tumors
[3] = tested on: 786-O RCC tumor xenograft; assay type: in vivo; details: 786-O xenograft; sunitinib 50 mg/kg, Ex82 30mg/kg daily by gavage
[4] = tested on: 786-O RCC tumor xenograft; assay: Arterial spin labeled MRI of tumor blood flow; assay type: in vivo, mouse; details: day 26 +/- 4 days

SMILES	electrical impedance of endothelial monolayer [1]	S1P1 expression in tumors [2]	percent area of TUNEL [2]	percent area of tumor vessels (CD34) [2]	tumor growth [3]	tumor blood flow (ASL MRI) [4]
CCCCCCCCCCCCC/C=C/[C@@H](O)[C@@H](N)COP(=O)(O)O [S1P, sphingosine-1-phosphate]	strongly increases electrical impedance					
CCN(CC)CCNC(=O)c1c(C)[nH]c(/C=C2\C(=O)Nc3ccc(F)cc32)c1C [sunitinib]		significantly reduced	10.9%	7.2%	slowed tumor growth	lower tumor blood flow than vehicle
